# Measurements: patent publication US8815883B2, “Compounds and methods for inhibiting serotonin synthesis” (The Trustees of Columbia Unviersity in the City of New York, priority 2009, dated 2014)
# Entries after “also recorded” stand apart in the source; their conditions may differ. Counter-ions that a name gives are not always drawn.
# Experiments:
# primary osteoblasts = experiment: Real-time PCR analysis of cyclin and osteoblast-specific gene expression in primary osteoblasts treated with serotonin; type: cell-based, mouse; conditions: serotonin 50 to 100 μM, 24 hr, vs vehicle
# Method: To test whether serotonin regulates the expression of cyclins in osteoblasts, a real-time PCR analysis of cyclin expression in primary osteoblasts treated with serotonin or vehicle was performed. […] In contrast, expression of Runx2, Osteocalcin and Type I collagen was not modified (FIG. 8B).
# Calvaria osteoblasts were extracted by triple collagenase/trypsine digestion from 4 day-old CD1 pups and differentiated with ascorbic acid as previously described (Ducy et al., 2000, Cell 100:197-207).
# (§1) Osteoblasts were treated in serum-free medium with vehicle or Serotonin (50 to 100 μM, Sigma) for 24 hr. Total RNA were extracted with Trizol (Invitrogen). cDNA were generated using the ABI Reverse transcriptase system and random hexanucleotide primers. Real-time PCR was performed using superarray primers on a Stratagene real time PCR cycler and Actin expression was used as endogenous control. Chromatin immunoprecipitation assays (ChIP) were performed by standard procedures using primary osteoblasts. Microarray analysis was performed as described previously (Glass et al., 2005, Dev. Cell 8:751-764).
# CREB = experiment: Western blot analysis of CREB phosphorylation in primary osteoblasts treated with serotonin; type: cell-based, mouse; conditions: serotonin 50 to 100 μM
# Method: (§2) Decreased expression of Cyclin D1 is a major feature of both Lrp5 deficiency and serotonin treatment of osteoblasts (FIGS. 1 and 8). One transcription factor that is known to modulate the expression of cyclin genes and is expressed in osteoblasts is CREB (Fu et al., 2005, Cell 122:803-815). Therefore, whether serotonin could decrease CREB activity in these cells was tested. […] Furthermore, a CREB binding site in the Cyclin D1 mouse promoter was identified and it was shown using ChIP assays that serotonin decreased binding of CREB to this promoter (FIG. 9B). These two observations raise the hypothesis that CREB could be mediating serotonin action on osteoblasts.
# Osteoblasts were treated in serum-free medium with vehicle or Serotonin (50 to 100 μM, Sigma) for 24 hr. Lysates from primary osteoblasts or crushed frozen bones were prepared in RIPA buffer in the presence of protease and phosphatase inhibitors. Twenty to 60 μg of proteins were separated by SDS-PAGE in reducing conditions and transferred on nitrocellulose membrane using standard protocols. Membranes were incubated with primary antibodies including total or anti-Phospho CREB (Cell Signaling Technology).
# Cyclin D1 mouse promoter = experiment: ChIP analysis of CREB binding to the Cyclin D1 promoter in primary osteoblasts treated with serotonin; type: cell-based
# Method: as §2, §1
# 5-HT1B receptor = 5-HT1B receptor (Homo sapiens, UniProt P28222); conditions: selective 5-HT1B receptor antagonist; British Journal of Pharmacology (2003) 138, 71-80; cited from earlier work
# Lrp5−/− mice = experiment: pCPA treatment of WT and Lrp5−/− mice: bone histomorphometry, serum serotonin, gut TPH1 and brain TPH2 expression; type: in vivo; conditions: 300 mg/kg pCPA intraperitoneally three times per week, from 3 weeks to 12 weeks of age
# Method: Consistent with the conclusion that the increase in serum serotonin level is responsible fully or partly for the bone phenotype of the Lrp5−/− mice is the discovery that pCPA, a serotonin synthesis inhibitor (Eldridge et al., 1981, Ann. Rev. Physiol. 43:121-135), prevented the appearance of the Lrp5−/− bone phenotype by decreasing serotonin production. WT and Lrp5−/− mice were treated with 300 mg/kg pCPA intraperitoneally three times per week, from 3 weeks to 12 weeks of age (FIG. 7A) and the changes in serum serotonin levels, TPH1 expression in gut and TPH2 expression in brain stem were analyzed. Bone histomorphometry was also performed. […] This rescue of the Lrp5 −/− phenotype was achieved by normalization of the gut TPH1 mRNA and of serum serotonin levels (FIGS. 7C and 7D).
# Generation of Lrp5−/− (Kato et al., 2002, J. Cell Biol. 157:303-314) β-cateninfloxed/floxed (Glass et al., 2005, Dev. Cell 8:751-764), α1(I)collagen-cre transgenic (Dacquin et al., 2002, Dev. Dyn. 224:245-251) and Htt−/− (Ansorge et al., 2008, J. Neurosci. 28:199-207) mice were as described previously. Lrp5+/−;Htt+/− double heterozygous mice were generated by crossing Lrp5+/− and Htt+/− mice. Three week-old Wt or Lrp5−/− mice were administered pCPA on alternate days for 9 weeks by i.p. All animal protocols were approved by the Animal Care Committees of Columbia University.
# Static histomorphometry measurements were performed as previously described in accordance with standard nomenclature, using the Osteomeasure Analysis System (Osteometrics, Inc) (Ducy et al., 2000, Cell 100:197-207). Four to 9 animals were assigned per group.
# Serotonin serum levels were quantified using immunoassay kits from Fitzgerald (Serotonin) and serotonin levels in the different regions of the brain were quantified by HPLC method as described previously (Mann et al., 1992, Arch. Gen. Psychiatry 49:442-446).
# rb 5-HT1B receptors = rb 5-HT1B receptors (Oryctolagus cuniculus, UniProt P49144); conditions: British Journal of Pharmacology (1997) 120, 153; cited from earlier work
# Chain of rb 5-HT1B receptors (P49144 whole entry): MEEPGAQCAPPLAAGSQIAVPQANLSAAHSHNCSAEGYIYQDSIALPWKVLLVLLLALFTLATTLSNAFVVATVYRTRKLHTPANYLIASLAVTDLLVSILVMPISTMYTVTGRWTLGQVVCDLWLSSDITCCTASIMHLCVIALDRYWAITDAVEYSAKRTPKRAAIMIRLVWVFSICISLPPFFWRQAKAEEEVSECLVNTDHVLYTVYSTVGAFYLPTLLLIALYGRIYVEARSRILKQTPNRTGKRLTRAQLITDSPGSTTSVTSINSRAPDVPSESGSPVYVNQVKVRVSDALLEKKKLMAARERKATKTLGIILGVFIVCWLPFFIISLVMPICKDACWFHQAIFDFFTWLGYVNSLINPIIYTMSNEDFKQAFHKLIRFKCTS
# Chain of 5-HT1B receptor (P28222 whole entry): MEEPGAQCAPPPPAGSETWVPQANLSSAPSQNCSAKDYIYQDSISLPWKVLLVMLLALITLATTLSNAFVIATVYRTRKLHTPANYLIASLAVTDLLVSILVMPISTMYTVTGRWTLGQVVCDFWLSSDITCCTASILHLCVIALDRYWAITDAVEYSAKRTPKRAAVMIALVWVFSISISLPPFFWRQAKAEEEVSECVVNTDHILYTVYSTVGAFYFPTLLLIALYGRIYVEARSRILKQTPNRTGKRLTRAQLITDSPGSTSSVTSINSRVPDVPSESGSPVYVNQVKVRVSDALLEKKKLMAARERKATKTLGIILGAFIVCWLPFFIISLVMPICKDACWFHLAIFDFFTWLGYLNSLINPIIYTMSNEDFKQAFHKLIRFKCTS
structure (smiles),measurement,setting,value
"NCCc1c[nH]c2ccc(O)cc12 [serotonin, 5-hydroxytryptamine]",expression of Cyclin D1,primary osteoblasts,decreased
same,expression of Cyclin D2,primary osteoblasts,decreased
same,expression of Osteocalcin,primary osteoblasts,not modified
same,expression of Runx2,primary osteoblasts,not modified
same,expression of Type I collagen,primary osteoblasts,not modified
same,CREB phosphorylation,CREB,significantly decreased
same,binding of CREB to the Cyclin D1 promoter (ChIP),Cyclin D1 mouse promoter,decreased
"CN(C)CCCc1cc(C(=O)Nc2ccc(-c3ccncc3)cc2)ccc1O [GR 55562, 3-[3-(dimethylamino)propyl]-4-hydroxy-N-[4-(4-pyridinyl)phenyl]benzamide dihydrochloride]",Kb,5-HT1B receptor,~100 nM
"NC(Cc1ccc(Cl)cc1)C(=O)O (stereo not drawn) [pCPA, para-chlorophenylalanine]",gut TPH1 mRNA,Lrp5−/− mice; Lrp5−/− mice,normalization
same,bone abnormalities (bone histomorphometry),"Lrp5−/− mice; Lrp5−/− mice, 300 mg/kg",corrects bone abnormalities; also recorded: corrects their low bone phenotype; also recorded: corrected the bone abnormalities
same,serum serotonin levels,"Lrp5−/− mice; Lrp5−/− mice, 300 mg/kg",normalizes; also recorded: normalization
same,bone mass,Lrp5−/− mice; WT mice,without overtly affecting bone mass
same,Brain TPH2 mRNA levels,Lrp5−/− mice; treated mice,not affected
CSc1ccc2c(c1)C(N1CCN(C)CC1)Cc1ccccc1S2 (stereo not drawn) [methiothepin],mode of antagonism at rb 5-HT1B receptors,rb 5-HT1B receptors,"silent, competitive antagonists"
O=C(c1ccc(F)cc1)C1CCN(CCn2c(=O)[nH]c3ccccc3c2=O)CC1 [ketanserin],mode of antagonism at rb 5-HT1B receptors,rb 5-HT1B receptors,"silent, competitive antagonists"
